Assay results: patent US10669272B2, “Substituted naphthyridinone compounds useful as T cell activators” (BRISTOL-MYERS SQUIBB COMPANY, priority 2018, dated 2020)
Like-named read-outs stand apart in the source and are kept apart here.

Assays:
[1] = test system: Human venous whole blood; assay: Human whole blood IFN-γ assay; format: cell-based; conditions: human whole blood, read-out: INFg Whole Blood Normalized Agonist EC50;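 note: blood from healthy donors exposed to compound for 1 h before stimulation with anti-CD3 and anti-CD28 at 1 µg/mL each, IFN-γ quantified in supernatant by AlphaLISA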
[2] = target: T1, human DGKζ (Homo sapiens, UniProt Q13574); assay: DGKζ LIPGLO assay (extruded liposome substrate), in vitro DGK inhibition; format: biochemical; conditions: read-out: DGKz LIPGLO IC50
T1 construct: TVMV protease cleavage site (C); Hexa-His (C); made in house; host or cells: Sf9 insect cells (baculovirus, Bac-to-Bac)
T1 sequence (Q13574 with tags, fused parts or gaps isoform Q13574-4): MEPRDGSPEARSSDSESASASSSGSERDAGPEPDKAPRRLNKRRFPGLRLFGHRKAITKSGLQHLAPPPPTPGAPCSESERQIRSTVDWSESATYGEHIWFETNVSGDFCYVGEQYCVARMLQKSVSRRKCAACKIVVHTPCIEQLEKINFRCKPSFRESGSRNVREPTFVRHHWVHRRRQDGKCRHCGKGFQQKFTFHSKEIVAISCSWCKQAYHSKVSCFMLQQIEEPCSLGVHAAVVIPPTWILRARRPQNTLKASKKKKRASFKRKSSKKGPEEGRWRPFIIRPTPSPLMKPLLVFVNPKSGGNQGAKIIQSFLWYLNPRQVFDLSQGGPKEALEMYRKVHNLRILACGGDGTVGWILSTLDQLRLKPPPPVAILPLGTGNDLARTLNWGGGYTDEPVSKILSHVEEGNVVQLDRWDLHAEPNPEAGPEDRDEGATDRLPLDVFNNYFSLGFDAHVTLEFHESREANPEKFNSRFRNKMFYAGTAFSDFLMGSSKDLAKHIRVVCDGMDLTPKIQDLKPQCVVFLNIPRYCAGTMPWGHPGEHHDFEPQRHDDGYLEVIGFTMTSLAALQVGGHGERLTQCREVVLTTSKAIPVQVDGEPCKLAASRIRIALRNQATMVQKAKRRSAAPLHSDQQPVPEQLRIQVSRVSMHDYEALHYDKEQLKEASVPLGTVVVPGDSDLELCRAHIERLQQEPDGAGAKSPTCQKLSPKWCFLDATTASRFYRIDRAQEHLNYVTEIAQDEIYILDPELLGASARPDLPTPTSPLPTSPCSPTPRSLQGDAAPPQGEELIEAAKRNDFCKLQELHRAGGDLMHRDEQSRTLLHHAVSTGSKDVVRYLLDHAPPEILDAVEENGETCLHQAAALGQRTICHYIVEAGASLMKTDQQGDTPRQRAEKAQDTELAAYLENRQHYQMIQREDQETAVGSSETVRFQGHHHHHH

[3] = target: T2, human DGKα (Homo sapiens, UniProt P23743); assay: DGKα LIPGLO assay (extruded liposome substrate), in vitro DGK inhibition; format: biochemical; conditions: read-out: DGKa LIPGLO IC50
T2 construct: TVMV protease cleavage site (C); Hexa-His (C); made in house; host or cells: Sf9 insect cells (baculovirus, Bac-to-Bac)
T2 sequence (P23743 with tags, fused parts or gaps): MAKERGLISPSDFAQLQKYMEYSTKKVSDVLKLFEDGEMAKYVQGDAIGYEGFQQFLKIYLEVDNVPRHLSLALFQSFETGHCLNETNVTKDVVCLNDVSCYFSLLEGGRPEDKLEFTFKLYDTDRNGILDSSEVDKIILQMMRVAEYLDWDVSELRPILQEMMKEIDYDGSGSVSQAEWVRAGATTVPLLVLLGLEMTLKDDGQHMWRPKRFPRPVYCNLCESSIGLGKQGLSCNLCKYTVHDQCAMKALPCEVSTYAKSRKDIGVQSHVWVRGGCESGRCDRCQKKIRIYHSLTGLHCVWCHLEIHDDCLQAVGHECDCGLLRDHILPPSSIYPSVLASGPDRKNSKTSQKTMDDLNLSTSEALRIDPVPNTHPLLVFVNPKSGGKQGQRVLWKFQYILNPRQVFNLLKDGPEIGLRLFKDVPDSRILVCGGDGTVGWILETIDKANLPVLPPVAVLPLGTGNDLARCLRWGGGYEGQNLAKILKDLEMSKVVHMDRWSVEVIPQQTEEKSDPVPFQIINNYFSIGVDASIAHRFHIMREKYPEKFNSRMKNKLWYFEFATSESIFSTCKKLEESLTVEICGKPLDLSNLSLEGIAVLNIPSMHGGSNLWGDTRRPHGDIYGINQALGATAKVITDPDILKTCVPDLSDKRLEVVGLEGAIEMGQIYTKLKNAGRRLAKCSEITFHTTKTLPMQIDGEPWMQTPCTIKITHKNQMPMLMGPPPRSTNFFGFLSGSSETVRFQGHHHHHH

[4] = Homo sapiens, 24 h, normalized to 3 μM reference compound with anti-CD3 plus anti-CD28 as 100% activation
[5] = normalized to 3 μM reference compound with anti-CD3 plus anti-CD28 as 100% activation
[6] = Homo sapiens, 24 h, anti-CD3 plus anti-CD28, 24 hours, 3 μM reference compound = 100% activation
[7] = anti-CD3 plus anti-CD28, 24 hours, 3 μM reference compound = 100% activation

IC50 ([2]; liposome (LIPGLO) assay) [nM]	IC50 ([3]; liposome (LIPGLO) assay) [nM]	IC50 ([2]; DGKζ liposome (LIPGLO) assay) [nM]	IC50 ([3]; DGKα liposome (LIPGLO) assay) [nM]	SMILES	EC50 [1, 4] [nM]	EC50 [1, 5] [nM]	EC50 [1, 6] [nM]	EC50 [1, 7] [nM]
470	730			CC[C@@H]1CN(c2cc(=O)n(C)c3ccc(C#N)nc23)[C@@H](C)CN1C(c1cccc(F)c1)c1ccc(F)cn1 (single isomer, unassigned) [Example 1109]	920			
7800	48000			Cc1ccc(C(c2cccc(F)c2)N2C[C@H](C)N(c3cc(=O)n(C)c4ccc(C#N)nc34)C[C@H]2C)cn1 (single isomer, unassigned) [Example 395]		6300		
4600	90			C[C@@H]1CN(c2cc(=O)n(C)c3ccc(C#N)nc23)[C@@H](C)CN1C(c1ccc(F)cc1)c1ncco1 (stereo partly drawn) [Example 718]		830		
1500	5200			CC[C@@H]1CN(c2cc(=O)n(C)c3ccc(C#N)nc23)[C@@H](C)CN1Cc1ccc2c(c1)OC(F)(F)O2 [Example 1082]	580			
250	1600			CC(c1ccc(C2(C#N)CC2)cc1F)N1C[C@H](C)N(c2cc(=O)n(C)c3ccc(C#N)nc23)C[C@H]1C (single isomer, unassigned) [Example 1251]	3900			
2700	1700			CC(c1ccc(OC(F)(F)F)c(F)c1)N1C[C@H](C)N(c2cc(=O)n(C)c3ccc(C#N)nc23)C[C@H]1C (single isomer, unassigned) [Example 1205]		8000		
		470	380	Cc1noc(C(c2ccc(F)cc2)N2C[C@H](C)N(c3cc(=O)n(C)c4ccc(C#N)nc34)C[C@H]2C)n1 (stereo partly drawn) [Example 745]			1100	
180	73			CC[C@H]1CN(C(c2ccc(F)cc2)c2ccc(C(F)(F)F)cn2)[C@H](C)CN1c1cc(=O)n(C)c2ccc(C#N)nc12 (single isomer, unassigned) [Example 1131]		430		
320	81			CCC(c1ccc(OC(F)(F)F)cc1F)N1C[C@H](C)N(c2cc(=O)n(C)c3ccc(C#N)nc23)C[C@H]1C (single isomer, unassigned) [Example 440]		1000		
900	510			CC[C@H]1CN(C(C)c2ccc(F)cc2)[C@H](CC)CN1c1cc(=O)n(C)c2ccc(C#N)nc12 (single isomer, unassigned) [Example 1050]		4400		
160	8.8			CC[C@H]1CN(C(C)c2ccc(OC(F)F)cc2)[C@H](C)CN1c1cc(=O)n(C)c2ccc(C#N)nc12 (single isomer, unassigned) [Example 1379]		510		
990	1600			CC[C@H]1CN(C(C)c2ccc(F)c(F)c2)[C@H](C)CN1c1cc(=O)n(C)c2ccc(C#N)nc12 (single isomer, unassigned) [Example 1140]		3400		
250	310			CCC(c1ccc(OC(F)(F)F)cc1F)N1C[C@H](C)N(c2cc(=O)n(C)c3ccc(C#N)nc23)C[C@H]1CC (single isomer, unassigned) [Example 420]		150		
		12	110	C[C@@H]1CN(c2cc(=O)n(C)c3ccc(C#N)nc23)[C@@H](C)CN1C(c1ccc(F)cc1)c1nc(C(C)(C)C)co1 (single isomer, unassigned) [Example 779]			10	
2000	3100			Cc1cc(C(C)N2C[C@H](C)N(c3cc(=O)n(C)c4ccc(C#N)nc34)C[C@H]2C)ccc1F (stereo partly drawn) [Example 1255]	2900			
2200	140			CC(c1ccc(OC(F)(F)F)cc1)N1C[C@H](C)N(c2cc(=O)n(C)c3ccc(C#N)nc23)C[C@H]1CO (single isomer, unassigned) [Example 1386]		3900		

Second part, the compound before the results:

SMILES	IC50 ([2]; liposome (LIPGLO) assay) [nM]	IC50 ([3]; liposome (LIPGLO) assay) [nM]	IC50 ([2]; DGKζ liposome (LIPGLO) assay) [nM]	IC50 ([3]; DGKα liposome (LIPGLO) assay) [nM]	EC50 [1, 4] [nM]	EC50 [1, 5] [nM]	EC50 [1, 6] [nM]	EC50 [1, 7] [nM]
Cc1ccc(C(c2ccc(F)cc2)N2C[C@H](C)N(c3c(F)c(=O)n(C)c4ccc(C#N)nc34)C[C@H]2C)cc1 (stereo partly drawn) [Example 335, 7-fluoro-8-((2S,5R)-4-((4-fluorophenyl)(p-tolyl)methyl)-2,5-dimethylpiperazin-1-yl)-5-methyl-6-oxo-5,6-dihydro-1,5-naphthyridine-2-carbonitrile]	2500	1200				1200		
Cc1ccc(F)cc1CN1CCN(c2c(C#N)c(=O)n(C)c3ccc(C#N)nc23)C[C@H]1C [Example 1001]			4600	1500			4700	
C[C@@H]1CN(c2c(F)c(=O)n(C)c3ccc(C#N)nc23)[C@@H](C)CN1C(c1ccc(F)cc1)c1ccccc1F (stereo partly drawn) [Example 333, 7-fluoro-8-((2S,5R)-4-((2-fluorophenyl)(4-fluorophenyl)methyl)-2,5-dimethylpiperazin-1-yl)-5-methyl-6-oxo-5,6-dihydro-1,5-naphthyridine-2-carbonitrile]	1100	830			1200			
C[C@@H]1CN(c2c(C#N)c(=O)n(C)c3ccc(C#N)nc23)CCN1Cc1ccc2ccccc2n1 [Example 992]			3200	1300			5800	
Cc1cccc(C(c2ccc(F)cc2)N2C[C@H](C)N(c3c(C#N)c(=O)n(C)c4ccc(C#N)nc34)C[C@H]2C)n1 (stereo partly drawn) [Example 815]			4100	7700			1900	
C[C@@H]1CN(c2cc(=O)n(C)c3ccc(C#N)nc23)[C@@H](C)CN1C(c1ccc(F)cc1)c1cccc2ccnn12 (single isomer, unassigned) [Example 695]	280	12000			4900			
C[C@@H]1CN(c2c(C#N)c(=O)n(C)c3ccc(C#N)nc23)CCN1C(c1ccc(F)cc1)c1ccc(C#N)cc1 (single isomer, unassigned) [Example 920]			13000	4900				1900
CCOC[C@@H]1CN(c2cc(=O)n(C)c3ccc(C#N)nc23)[C@@H](C)CN1C(c1ccc(F)cc1)c1ccc(C(F)(F)F)cn1 (stereo partly drawn) [Example 1404]	50	900				900		
C[C@@H]1CN(c2c(C#N)c(=O)n(C)c3ccc(C#N)nc23)CCN1C(c1ccccc1)c1ccc(F)cc1 (single isomer, unassigned) [Example 878]			1300	1900				570
COc1ncccc1C(c1ccc(F)cc1)N1CCN(c2c(C#N)c(=O)n(C)c3ccc(C#N)nc23)C[C@H]1C (single isomer, unassigned) [Example 894]			680	8600				4000
C[C@@H]1CN(c2c(C#N)c(=O)n(C)c3ccc(C#N)nc23)CCN1Cc1ccc(-c2ccccc2)cc1 [Example 994]			110000	6400			20000	
CC(c1ccc(C(F)(F)F)cc1)N1CCN(c2c(C#N)c(=O)n(C)c3ccc(C#N)nc23)C[C@H]1C (single isomer, unassigned) [Example 960]			6600	6700			20000	
C[C@@H]1CN(c2cc(=O)n(C)c3ccc(C#N)nc23)[C@@H](C)CN1C(c1ccc(F)cc1)c1cnc(C2CC2)s1 (single isomer, unassigned) [Example 727]			1600	37000			1300	
C[C@@H]1CN(c2cc(=O)n(C)c3ccc(C#N)nc23)[C@@H](C)CN1C(c1ccc(Br)cc1)c1nc(C2CC2)no1 (stereo partly drawn) [Example 761]			41	48				170
C[C@@H]1CN(c2c(C#N)c(=O)n(C)c3ccc(C#N)nc23)CCN1Cc1ccccn1 [Example 990]			25000	740			20000	
C[C@@H]1CN(c2c(C#N)c(=O)n(C)c3ccc(C#N)nc23)[C@@H](C)CN1C(c1ccc(F)cc1)c1cncn1C (stereo partly drawn) [Example 849]			130000	> 250000				20000
C[C@@H]1CN(c2c(C#N)c(=O)n(C)c3ccc(C#N)nc23)CCN1C(c1ccc(F)cc1)c1ccccc1F (stereo partly drawn) [Example 883]			840	1500				830
